From patent publication US20240383831A1, “ALKOXYLATION OF CANNABIDIOL AND OTHER CANNABINOIDS” (Indorama Ventures Oxides LLC, priority 2021, published 2024)

Tests used:
Assay type in all cases: physicochemical
pH of 5 wt % in water = test: pH of 5 wt % in water
Description: (§1) The alkoxylated product that results from the above reaction conditions can be characterized using common analytical techniques, including hydroxyl value, melting point, unreacted cannabinoid (wt %), cloud point (5 wt % in water), pH (5 wt % in water), ^1H NMR-structural analysis, and appearance. Comparisons between a cannabinoid and its alkoxylated form (such as CBD and e-CBD in EXAMPLE 1 below) are made in Table 1 exemplifying how the e-CBD having a (POE) value of 12 behaves differently as compared to its non-ethoxylated precursor. While these properties are strongly dependent on the number of moles of EO used in relation to the equivalents of CBD, in order to obtain a water soluble or dispersible product, the number of moles of EO in the e-CBD may be between about 1-100, more preferably between about 10-25.

[1] = Cloud point, 5 wt % actives in water
Description: as §1

[2] = Water solubility of e-CBD compounds, 5 wt % actives in water
Description: as §1
By varying the molar ratio of the epoxide-to-cannabinoid starter compound to produce a product having a (POE) value between 7 and 36, the hydrophilicity of the cannabinoid may be tuned (see Table 2). The water solubility of the alkoxylated-CBD compounds (Examples 1-4) was determined at room (25° C.) and physiological (37° C.) temperatures.

C=C(C)[C@@H]1CCC(C)=C[C@H]1c1c(O)cc(CCCCC)cc1O [CBD, cannabidiol]
Insoluble: pH (5 wt % in water at 25° C.) (pH of 5 wt % in water) | Cloud Point (° C., 5 wt % actives in water) [1] | Water Solubility (5 wt % in water at 37° C.) ([2]; Table 1, 5 wt % in water, 37° C.) | Water Solubility (5 wt % actives in water at 25° C.) ([2]; Table 2, 5 wt % actives in water, 25° C. (room temperature)) | Water Solubility (5 wt % actives in water at 37° C.) ([2]; Table 2, 5 wt % actives in water, 37° C. (physiological temperature))
